Experimental data from US20100168016A1, “DIAGNOSIS AND TREATMENT OF DISEASES CAUSED BY MISFOLDED PROTEINS” (THE JACKSON LABORATORY, priority 2007, published 2010).
Residues, ends and D or L forms follow the SMILES beside them. *: point of attachment. Cbz = O=C(OCc1ccccc1)*

Columns and labels:
[1] = test system: HA-ANKRD16^CAST-transfected COS-7 cells; assay: subcellular localization of ANKRD16 in transfected COS-7 cells; type: cell-based, monkey; conditions: for relocalization of ANKRD16: 10 μM MG132 or 10 μM epoximicin or 3-MA, 24 hours after transfection, within 12 hours of treatment
Method: Cellular localization of full-length ANKRD16 was determined by transfection of epitope-tagged full-length ANKRD16^CAST into monkey kidney fibroblast COS-7 cells and human alveolar epithelial A549 cells. The ANKRD16 coding sequence was amplified by polymerase chain reaction from cDNA by using Pfu DNA polymerase (Stratagene), purified by agarose gel electrophoresis and ligated in-frame with the HA-tag into the pcDNA3 vector. This clone encoded a fusion ANKRD16 with the tag at its C-terminus. All DNA constructs were confirmed by sequencing. COS-7 and A549 cells were maintained in Dulbecco's modified Eagle's medium (Sigma-Aldrich). All cells were grown at 37° C. in 5% CO2 and supplemented with 10% (vol/vol) fetal calf serum, 100 U/ml penicillin and 100 μg/ml streptomycin. Transfections were performed using Lipofectamine 2000 transfection reagent (Invitrogen, USA) according to the manufacturer's protocol. Cells were cultured for 48 h after transfection.
To determine if the induction of autophagy changes the intracellular localization of ANKRD16, we treated transfected cells with rapamycin to induce macroautophagy (data not shown) or performed serum starvation experiments (known to induce chaperone-mediated autophagy after 18 hours) on transfected cells (data not shown). COS-7 cells were transfected with full-length HA-ANKRD16^CAST constructs. […] Nor was co-localization observed with endosome, autophagosome or lysosome markers (data not shown) in the presence or absence of rapamycin or proteasome inhibitors administered as described below.
Several proteins that regulate protein folding and/or the disposal of misfolded proteins are induced or change their subcellular localization in response to misfolded protein stress. To examine if subcellular localization changes with intracellular accumulation of misfolded proteins, we treated full-length HA-ANKRD16^CAST-transfected COS-7 cells 24 hours after transfection with proteosome inhibitors, 10 μM MG132 (Sigma-Aldrich) or 10 μM epoximicin (Sigma-Aldrich) or blocked autophagy with 3-methyladenine (3-MA; Sigma-Aldrich). […]
For immunostaining the cells were fixed with 4% paraformaldehyde (PFA) at room temperature for 5 min, then incubated with anti-ubiquitin, anti-HA, anti-r-tubulin, and anti-vimentin antibodies overnight at 4° C. […] The fluorescence was detected under a fluorescence microscope.

[2] = test system: mouse embryonic fibroblasts from CASTEi/J mice; assay: aggresome localization of ANKRD16 in fibroblasts under proteasomal stress; type: cell-based; conditions: 1 μM epoximicin for 18 hours
Method: Mouse embryonic fibroblasts were isolated from CASTEi/J mice. To isolate embryonic fibroblasts, CASTEi/J mice were paired for time of pregnancy. E13.5 day pregnant female mice for each of the strains were sacrificed. The time point E0.5 is the morning of finding a plug after pairing a female with a male. The uteri were removed and placed into a dish with PBS and washed. The embryos were isolated free of extraembryonic tissue and washed in PBS. Each embryo was placed into a separate 14 ml tube containing 3 ml of media (DMEM, 10% FBS) and homogenized for 2 seconds. The homogenized tissues were put into 145 mm tissue culture plates (e.g. CellStar from USA Scientific cat.#5663-9160) containing 20 ml of media (DMEM, 10% FBS). The cells were incubated at 37° C. in 5% CO2 until cells were confluent, which was on average from 5 to 7 days. The cells were expanded according to standard tissue culture methods using trypsin and the same passage number for each cell line was used for the experiment. To stress the fibroblast they were treated for 18 hours with 1 μM epoximicin, a proteosome inhibitor (Genaxxon). Then untreated and treated cells were fixed, visualized for ANKRD16 expression using indirect immunofluorescence with polyclonal ANKRD16 rabbit antibody as primary antibody and Alexa555-conjugated anti-rabbit IgG (Invitrogen, Molecular Probes) as secondary antibody. […]

CC(C)C[C@@H](C=O)NC(=O)[C@H](CC(C)C)NC(=O)[C@H](CC(C)C)NC(=O)OCc1ccccc1 [MG132] (Cbz-Leu-Leu-Leu-aldehyde)
relocalization of ANKRD16 [1]: Relocalization of ANKRD16 to a juxtanuclear structure

COC(=O)Nc1nc2ccc(C(=O)c3cccs3)cc2[nH]1 [nocodazole]
formation of the aggresome structure ([1]; 10 μg/ml nocodazole): disrupted

CC[C@H](C)[C@H](NC(=O)[C@H]([C@@H](C)CC)N(C)C(C)=O)C(=O)N[C@H](C(=O)N[C@@H](CC(C)C)C(=O)[C@@]1(C)CO1)[C@@H](C)O [epoximicin]
relocalization of ANKRD16 [1]: Relocalization of ANKRD16 to a juxtanuclear structure | localization of ANKRD16 [2]: relocalized to the aggresome

Cn1cnc(N)c2ncnc1-2 [3-methyladenine]
relocalization of ANKRD16 [1]: Relocalization of ANKRD16 to a juxtanuclear structure
